The structures appear in SMILES notation.

This test addresses T1, recombinant human Estrogen Receptor alpha ligand binding domain, residues 307-554 (ER alpha-LBD (GST)) (Homo sapiens, UniProt P03372).
T1 construct: made in house
T1 sequence (P03372 307-554): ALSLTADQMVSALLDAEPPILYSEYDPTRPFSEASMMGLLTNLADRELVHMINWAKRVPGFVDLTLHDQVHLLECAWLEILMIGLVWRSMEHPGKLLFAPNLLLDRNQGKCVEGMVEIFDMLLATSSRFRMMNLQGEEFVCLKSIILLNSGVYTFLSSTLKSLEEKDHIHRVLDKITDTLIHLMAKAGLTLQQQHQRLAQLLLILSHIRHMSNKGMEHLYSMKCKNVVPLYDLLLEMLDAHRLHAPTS
As to the kind of experiment: ERα binding assay (LanthaScreen TR-FRET competition). The conditions noted are these: TR-FRET competition with Fluormone ES2 tracer, 4 hours at room temperature; single experiment or average of two or more.
Take `Cc1ncsc1-c1ccc(CNC(=O)[C@@H]2C[C@@H](O)CN2C(=O)[C@@H](NC(=O)COCc2cccc(COc3cc(F)c([C@@H]4c5[nH]c6ccccc6c5C[C@@H](C)N4CC(C)(C)F)c(F)c3)n2)C(C)(C)C)cc1` [Example 132, (2S,4R)-1-((S)-2-(2-((6-((3,5-Difluoro-4-((1R,3R)-2-(2-fluoro-2-methylpropyl)-3-methyl-2,3,4,9-tetrahydro-1H-pyrido[3,4-b]indol-1-yl)phenoxy)methyl)pyridin-2-yl)methoxy)acetamido)-3,3-dimethylbutanoyl)-4-hydroxy-N-(4-(4-methylthiazol-5-yl)benzyl)pyrrolidine-2-carboxamide]: the IC50 came to 0.5 nM. The same measure for `Cc1ncsc1-c1ccc(CNC(=O)[C@@H]2C[C@@H](O)CN2C(=O)[C@@H](NC(=O)COCCCOCCCCCOc2cc(F)c([C@@H]3c4[nH]c5ccccc5c4C[C@@H](C)N3CC(C)(C)F)c(F)c2)C(C)(C)C)cc1` [Example 138, (2S,4R)-1-((S)-2-(2-(3-((5-(3,5-Difluoro-4-((R,3R)-2-(2-fluoro-2-methylpropyl)-3-methyl-2,3,4,9-tetrahydro-1H-pyrido[3,4-b]indol-1-yl)phenoxy)pentyl)oxy)propoxy)acetamido)-3,3-dimethylbutanoyl)-4-hydroxy-N-(4-(4-methylthiazol-5-yl)benzyl)pyrrolidine-2-carboxamide]: 0.6 nM. To `Cc1ncsc1-c1ccc(CNC(=O)[C@@H]2C[C@@H](O)CN2C(=O)[C@@H](NC(=O)COCCCCCCCOc2cc(F)c([C@@H]3c4[nH]c5ccccc5c4C[C@@H](C)N3CC(C)(C)F)c(F)c2)C(C)(C)C)cc1` [Example 7, (2S,4R)-1-((S)-2-(2-((7-(3,5-Difluoro-4-((1R,3R)-2-(2-fluoro-2-methylpropyl)-3-methyl-2,3,4,9-tetrahydro-1H-pyrido[3,4-b]indol-1-yl)phenoxy)heptyl)oxy)acetamido)-3,3-dimethylbutanoyl)-4-hydroxy-N-(4-(4-methylthiazol-5-yl)benzyl)pyrrolidine-2-carboxamide] belongs 1.2 nM; to `Cc1ncsc1-c1ccc(CNC(=O)[C@@H]2C[C@@H](O)CN2C(=O)[C@@H](NC(=O)COCCOCCCCCOc2cnc([C@@H]3c4[nH]c5ccccc5c4C[C@@H](C)N3CC(F)(F)F)c(F)c2)C(C)(C)C)cc1` [Example 165, (2S,4R)-1-((S)-2-(2-(2-((5-((5-Fluoro-6-((1S,3R)-3-methyl-2-(2,2,2-trifluoroethyl)-2,3,4,9-tetrahydro-1H-pyrido[3,4-b]indol-1-yl)pyridin-3-yl)oxy)pentyl)oxy)ethoxy)acetamido)-3,3-dimethylbutanoyl)-4-hydroxy-N-(4-(4-methylthiazol-5-yl)benzyl)pyrrolidine-2-carboxamide], 11.4 nM. On to `Cc1ncsc1-c1ccc([C@H](C)NC(=O)[C@@H]2C[C@@H](O)CN2C(=O)[C@@H](NC(=O)C(F)(F)OCCOCCCCOc2cc(F)c([C@@H]3c4[nH]c5ccccc5c4C[C@@H](C)N3CC(C)(C)F)c(F)c2)C(C)(C)C)cc1` [Example 122, (2S,4R)-1-((S)-2-(2-(2-(4-(3,5-Difluoro-4-((1R,3R)-2-(2-fluoro-2-methylpropyl)-3-methyl-2,3,4,9-tetrahydro-1H-pyrido[3,4-b]indol-1-yl)phenoxy)butoxy)ethoxy)-2,2-difluoroacetamido)-3,3-dimethylbutanoyl)-4-hydroxy-N—((S)-1-(4-(4-methylthiazol-5-yl)phenyl)ethyl)pyrrolidine-2-carboxamide], for which the IC50 is 1.5 nM. To `Cc1ncsc1-c1ccc(CNC(=O)[C@@H]2C[C@@H](O)CN2C(=O)[C@@H](NC(=O)COCCc2ccc(COc3cc(F)c([C@@H]4c5[nH]c6ccccc6c5C[C@@H](C)N4CC(C)(C)F)c(F)c3)nc2)C(C)(C)C)cc1` [Example 158, (2S,4R)-1-((S)-2-(2-(2-(6-((3,5-Difluoro-4-((1R,3R)-2-(2-fluoro-2-methylpropyl)-3-methyl-2,3,4,9-tetrahydro-1H-pyrido[3,4-b]indol-1-yl)phenoxy)methyl)pyridin-3-yl)ethoxy)acetamido)-3,3-dimethylbutanoyl)-4-hydroxy-N-(4-(4-methylthiazol-5-yl)benzyl)pyrrolidine-2-carboxamide] belongs 0.8 nM.

By IC50 is commonly meant the concentration needed to halve the response being measured.

These data come from patent US10519152B2, “Compounds and their use in treating cancer” (AstraZeneca AB, priority 2017, dated 2019).
